Laboratory results from patent publication US20160235807A1, “AGONISTS OF GUANYLATE CYCLASE USEFUL FOR DOWNREGULATION OF PRO-INFLAMMATORY CYTOKINES” (SYNERGY PHARMACEUTICALS, INC., priority 2013, published 2016).
Entries after “also recorded” stand apart in the source; their conditions may differ. Bridge positions count the residues as written; N and C are the ends. Peptide text beside a SMILES is read from it.

Legend:
[1] = assay type: in vitro ADME
Experimental: (§1) Plecanatide and SP-333 were incubated in simulated intestinal fluid (SIF) for 6-24 h. Inactivated SIF was used as a control. Following the treatment, samples were analyzed by HPLC by cGMP production in T84 cells. […] The active metabolite, SP-338 was characterized by MS and MS/MS and identified to be formed via removal of carboxyl terminal leucine possibly due to cleavage by carboxypeptidases.

[2] = test system: colitis in TCRα −/− mice; test: Spontaneous colitis in TCRα−/− mice; assay type: in vivo, mouse; conditions: plecanatide 0.5 and 2.5 mg/kg oral daily for 14 days; vs vehicle
Experimental: TCRα^−/− mice were matched for age and sex in all experiments. 16 week old TCRα−/− mice were treated with plecanatide at 0.5 or 2.5 mg/kg/day or PBS vehicle control by oral gavage for 14 days (6 mice per group). Mice were sacrificed 12 h after the final dose, and GI tissues were collected for experimental analyses. Colitis severity in TCRα^−/− model was scored as described (Berg et al., 1996).
(§2) Disease activity index (DAI) was calculated by scoring in-life parameters starting from day −1 until the end of the study. Once daily, all mice were weighed and assessed for stool consistency, and the presence of overt blood in the stool or around the anus essentially similar to that reported earlier. Colitis severity was assessed by histopathological analyses of H&E stained tissue sections (Hegazi et al., 2005; Dave et al., 2009) employing the following criteria: (score 0) normal appearing crypts; (score 1) abnormal crypt pathology without ulceration; (score 2) depleted crypts with ulceration; (score 3) 20-50% depleted crypts and increased ulceration; (score 4) >50% depleted crypts with substantial ulceration and (score 5) totally ulcerated/inflamed colon with no crypts remaining. All slides were scored in a blinded manner. Colitis severity in TCRα−/− model was scored as previously described^25. All slides were scored in a blinded manner. […]

[3] = test system: TNBS-induced colitis; test: TNBS-induced colitis in BALB/c mice; assay type: in vivo, mouse; conditions: plecanatide 0.5 and 2.5 mg/kg oral once daily 7 days; p<0.05; preliminary study
Experimental: Mouse strains BDF1 and BALB/c were used to examine the efficacy of plecanatide in TNBS induced colitis. The procedures used were as previously described (Hegazi et al., 2005; Dave et al., 2009). Briefly, to induce colitis in specific pathogen-free 2-4 months old female BALB/c mice, 0.5 mg of TNBS in 50% ethanol was slowly administered into the lumen of the colon via a 3.5 F catheter fitted onto a 1-ml syringe (total injection volume 100 μl). Plecanatide formulated in PBS was administered by oral gavage for a total of 7 days, with the first dose given one day prior to TNBS challenge. […]
as §2, with “remaining.” for “remaining. All slides were scored in a blinded manner. Colitis severity in TCRα−/− model was scored as previously described^25. All slides were scored in a blinded manner.”

[4] = test system: colon dysplasia; conditions: oral plecanatide; Chang et al., 2014; Shailubhai et al., 2012; cited from earlier work
[5] = test system: DSS-induced colitis; test: DSS-induced colitis in BDF-1 mice; assay type: in vivo, mouse
Experimental: To evaluate the efficacy of plecanatide in DSS induced colitis model, 48 BDF-1 mice were divided into 8 treatment groups (6 mice/group). One group was not exposed to DSS (untreated control) and groups 2-8 were treated with 5% DSS in the drinking water on day 0. Plecanatide or SP-333 solutions formulated in 0.1M phosphate buffer (pH 7) was administered by oral gavage, once a day at 0.005, 0.05, 0.5, 2.5 and 5 mg/kg, from study day −1 (i.e. prior to initiation of DSS treatment) through day 6 for SP-333 or day 7 for plecanatide. DSS treatment was initiated on day 0 for groups 2-8 until the end of the study. Sulfasalazine (80 mg/kg) or 5-ASA (100 mg/kg) was used as positive control and was administered daily. Mice were sacrificed on day 7. The large intestine was removed and weighed. Distal section of the large intestine was collected and fixed as described above.
(§3) Disease activity index (DAI) was calculated by scoring in-life parameters starting from day −1 until the end of the study. Once daily, all mice were weighed and assessed for stool consistency, and the presence of overt blood in the stool or around the anus essentially similar to that reported earlier. Colitis severity was assessed by histopathological analyses of H&E stained tissue sections (Hegazi et al., 2005; Dave et al., 2009) employing the following criteria: (score 0) normal appearing crypts; (score 1) abnormal crypt pathology without ulceration; (score 2) depleted crypts with ulceration; (score 3) 20-50% depleted crypts and increased ulceration; (score 4) >50% depleted crypts with substantial ulceration and (score 5) totally ulcerated/inflamed colon with no crypts remaining. All slides were scored in a blinded manner. Colitis severity in TCRα−/− model was scored as previously described^25. All slides were scored in a blinded manner. Disease activity index (DAI) was calculated by assessing body weight, stool consistency, and the presence of overt blood in stools or around the anus, essentially similar to that reported earlier (Hamamoto et al., 1999).

[6] = assay type: in vitro ADME; remark: listed apart in the source
Experimental: (§4) The potency of test peptides to stimulate cGMP synthesis in T84 cells was assayed by a published procedure (Shailubhai et al. 2000). Briefly, confluent monolayers of T-84 cells in 24-well plates were washed twice with 250 μl of DMEM containing 50 mM HEPES (pH 7.4), pre-incubated at 37° C. for 10 min with 250 μl of DMEM containing 50 mM HEPES (pH 7.4) and 1 mM isobutylmethylxanthine (IBMX), followed by incubation with test peptide for 30 min. The medium was aspirated, and the reaction was terminated by the addition of 3% perchloric acid. Following centrifugation, and neutralization with 0.1 N NaOH, the resulting supernatant was used directly for measurements of intracellular cGMP using an ELISA kit (Caymen Chemical, Ann Arbor, Mich.). Results are expressed as pmol of cGMP/mg of protein in the cell extracts.
as §1

[7] = test system: TNBS-induced colitis; test: TNBS-induced colitis in BDF-1 mice; assay type: in vivo, mouse
Experimental: Mouse strains BDF1 and BALB/c were used to examine the efficacy of plecanatide in TNBS induced colitis. The procedures used were as previously described (Hegazi et al., 2005; Dave et al., 2009). Briefly, to induce colitis in specific pathogen-free 2-4 months old female BALB/c mice, 0.5 mg of TNBS in 50% ethanol was slowly administered into the lumen of the colon via a 3.5 F catheter fitted onto a 1-ml syringe (total injection volume 100 μl). Plecanatide formulated in PBS was administered by oral gavage for a total of 7 days, with the first dose given one day prior to TNBS challenge. Mice were observed daily for body weight, food consumption and for signs of any apparent toxicity, rectal bleeding or prolapse. After 7 days of treatment, GI tissue collection, fixation and histopathological scoring were performed essentially as described previously (Sheikh et al., 2011). GI tissues were also collected and immediately processed for explant culture and cytokine expression as described below.
To induce colitis in BDF1 mice, a total of 90, 10-12 week old, H. pylori free male mice were used. Animals were randomized into 9 groups. TNBS was rectally administered as described above in a total injection volume of 100 μl. Oral administration of PBS formulated plecanatide (0.0005-50 mg/kg), animal monitoring and collection of GI tissues was performed as described above. Daily administration of plecanatide was continued through day 6, when the mice were euthanized. […] Distal sections were fixed, stained with H&E, and evaluated for histopathology and visual severity scores (Hegazi et al., 2005; Dave et al., 2009). […]
as §3

[8] = test system: colonic explants; test: Explant cultures of colon tissue from TNBS-induced colitis BALB/c mice, cytokine ELISA; assay type: in vivo, mouse; conditions: 24 h, vs vehicle-treated explants
Experimental: (§5) Colonic tissue fragments (0.5 g dry weight) from the TNBS-induced colitis mice and TCRα^−/− knockout mice were processed as previously described (Hegazi et al., 2005). Tissue fragment supernatants were collected after 24 h for cytokine ELISAs. Murine immunoassay kits (R&D System) were used according to the manufacturer's instructions for IL-12p40, IL-23 and TNF. Linco Cytokine-16 plex Mouse ELISA was performed for MIP-1α, RANTES, IL-10 and IL-17 (Millipore) as per manufacturer's instructions.
(§6) Murine IL-12 p40, IL-1β, TNF, IFN-γ, immunoassay kits (R&D System, MN, USA) were used according to the manufacturer's instructions. Linco Cytokine-16 plex Mouse ELISA was performed for MIP-1α, RANTES, IL-10, TNF and IL-17 (Millipore, Billerica, Mass.) as per manufacturer's instructions.

[9] = target: T1, GC-C Receptor (Homo sapiens, UniProt P25092); test: Cyclic GMP stimulation assay in T84 cells; assay type: cell-based
T1 construct: endogenous in cells; host or cells: T84 human colon carcinoma cells
T1 sequence (P25092 24-1073): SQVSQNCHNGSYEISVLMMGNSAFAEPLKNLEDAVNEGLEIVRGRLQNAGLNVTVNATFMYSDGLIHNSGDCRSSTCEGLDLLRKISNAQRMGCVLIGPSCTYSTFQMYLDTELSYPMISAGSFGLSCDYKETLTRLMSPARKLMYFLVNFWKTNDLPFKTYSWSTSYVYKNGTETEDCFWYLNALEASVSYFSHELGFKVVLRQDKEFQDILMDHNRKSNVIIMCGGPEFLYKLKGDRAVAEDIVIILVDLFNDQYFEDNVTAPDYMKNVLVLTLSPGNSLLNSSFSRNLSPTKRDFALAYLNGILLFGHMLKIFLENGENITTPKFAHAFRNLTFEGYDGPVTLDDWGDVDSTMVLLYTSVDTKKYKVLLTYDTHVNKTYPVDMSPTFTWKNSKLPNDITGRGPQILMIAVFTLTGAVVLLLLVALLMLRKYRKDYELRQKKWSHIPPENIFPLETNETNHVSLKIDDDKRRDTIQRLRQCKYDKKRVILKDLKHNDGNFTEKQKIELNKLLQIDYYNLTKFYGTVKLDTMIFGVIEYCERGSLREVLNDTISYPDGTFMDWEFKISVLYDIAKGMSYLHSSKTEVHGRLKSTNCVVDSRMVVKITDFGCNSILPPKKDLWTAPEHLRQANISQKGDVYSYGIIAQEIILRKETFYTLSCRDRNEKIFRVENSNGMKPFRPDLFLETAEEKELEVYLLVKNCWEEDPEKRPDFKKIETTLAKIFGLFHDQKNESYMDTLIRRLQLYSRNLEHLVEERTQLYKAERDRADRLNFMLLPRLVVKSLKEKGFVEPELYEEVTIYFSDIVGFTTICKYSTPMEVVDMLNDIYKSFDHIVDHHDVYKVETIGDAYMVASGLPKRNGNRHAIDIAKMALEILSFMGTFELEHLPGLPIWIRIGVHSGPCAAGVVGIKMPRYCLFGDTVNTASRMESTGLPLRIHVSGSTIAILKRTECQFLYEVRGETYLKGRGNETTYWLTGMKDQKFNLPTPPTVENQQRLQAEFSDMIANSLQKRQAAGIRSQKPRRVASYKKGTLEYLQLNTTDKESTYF
Experimental: as §4

[10] = test system: colonic explants; test: Explant cultures of colon tissue from TCRα−/− mice, cytokine and chemokine ELISA; assay type: in vivo, mouse; conditions: explant culture 24 h, plecanatide treated mice
Experimental: as §5, §6

## CC(C)C[C@H](NC(=O)[C@@H]1CSSC[C@@H]2NC(=O)[C@H](CC(C)C)NC(=O)[C@H](CCC(=O)O)NC(=O)[C@@H](NC(=O)[C@H](CCC(=O)O)NC(=O)[C@H](CC(=O)O)NC(=O)[C@@H](N)CC(N)=O)CSSC[C@H](NC(=O)[C@H](C)NC(=O)[C@H](C(C)C)NC(=O)[C@H](CC(N)=O)NC(=O)[C@H](C(C)C)NC2=O)C(=O)N[C@@H]([C@@H](C)O)C(=O)NCC(=O)N1)C(=O)O [plecanatide, Asn^1-Asp^2-Glu^3-Cys^4-Glu^5-Leu^6-Cys^7-Val^8-Asn^9-Val^10-Ala^11-Cys^12-Thr^13-Gly^14-Cys^15-Leu^16] (H-NDECELCVNVACTGCL-OH; disulfide 4-12, 7-15 (inferred))
[1]
  HPLC analysis after digestion with SIF: completely converts plecanatide into a shorter peptide
  time over which intact peptide was stable, HPLC: up to 6 h
[2]
  colitis scores: reduced
[3]
  colitis scores: significantly lower; also recorded: effectively ameliorated
[4]
  colon dysplasia: considerably reduced
[5]; plecanatide 0.005 mg/kg oral gavage once a day, vs untreated controls p=0.02
  DSS induced colitis severity score: significantly lower; also recorded: as effective as sulfasalazine (80 mg/kg)
[5]; plecanatide doses higher than 0.005 mg/day (so in the source)
  amelioration of DSS-induced colitis at higher doses: did not produce incremental effect
[5]; plecanatide, DSS model
  colitis severity compared with reference compound sulfasalazine (80 mg/kg): superior to treatment with reference compound
[6]
  activity retained: ~70%
  biological activity lost: ~35%
[7]; plecanatide 0.05 mg/kg and higher doses oral, vs untreated controls
  colitis severity: significantly lower; also recorded: statistically significant reduction
[7]; plecanatide doses under 0.005 mg/kg oral
  colitis severity: ineffective
[7]; plecanatide oral, TNBS model
  effective dose-range: 0.05 to 0.5 mg/kg
[7]; plecanatide, TNBS model
  colitis severity compared with reference compound sulfasalazine (80 mg/kg): superior to treatment with reference compound
[8]
  suppression of secretion of IL-12p40: 37%
  suppression of secretion of IL-23: 84%
  suppression of secretion of TNF: 67%
[9]
  potency to stimulate cGMP in T84 cells: dose dependent increase in cGMP; also recorded: comparable to that of SP-333
[10]
  levels of secreted IL-10: increased
  production of IL-17: considerably suppressed
  production of MIP-1α: considerably suppressed
  production of RANTES: considerably suppressed
